Measurements from patent EP0976747A2, “Use of 5HT-1F receptor antagonists for treating anxiety disorders” (ELI LILLY AND COMPANY, priority 1998, dated 2000).

System: male Wister rats
Test: Social interaction test of experimental anxiety
Type: in vivo
Details: 20 mg/kg intraperitoneal, tested 1 hour after dosing, 5 minutes observation, compared to baseline, significance at p<0.01
Method: The procedure for this assay is summarized below.
All experiments were performed on male Wister rats (Harlan laboratories, 275-300 gm). The rats were individually housed in a temperature controlled room (72°F) on a 12 hour day/night cycle. The rats were provided food and water ad libitum.
Approximately 40 mg of the test compound was weighed into a 20 mL glass vial. To this solid were added 80µL of lactic acid (85%). The mixture was sonicated for 2 minutes and then 4mL of distilled water was added in lmL increments. Sonication of this mixture was continued until all of the solid had dissolved. Following sonication, the pH of the mixture was raised by the addition of dilute aqueous sodium hydroxide until the mixture reached a pH of about 5.5.
Each rat was weighed and the test compound administered by intraperitoneal injection at 20 mg/kg of body weight. […]
Experimental anxiety was measured by a social interaction test. […] A video camera was fixed above the social interaction box and all behavioral tests were recorded. […] The amount of time that the rat which received test compound spent interacting (i.e. grooming, sniffing, crawling upon) with the other rat was recorded. […]
Social interaction data was analyzed as total interaction time in seconds and the raw scores were compared between baseline and treatment. […]

For `O[C@H](COc1ccc2ccccc2c1)CN1CCC(O)(c2cnc3ccccc3c2)CC1` [Example 37, 1-((2S)-hydroxy-3-(naphth-2-yloxy)prop-1-yl)-4-hydroxy-4-(quinolin-3-yl)piperidine], the social interaction time was “significantly increase social interaction time as compared to baseline”.
